Data: patent US10919844B2, “Antibacterials and/or modulators of biofilm formation and methods of using the same” (Indiana University Research and Technology Corporation, priority 2015, dated 2021)
Entries after “also recorded” stand apart in the source; their conditions may differ.

How the values were obtained:
Pseudomonas aeruginosa = test: P. aeruginosa biofilm formation assay (K357 biofilm assay, crystal violet OD readout); assay type: cell-based; conditions: for activity in the Biofilm Assay: FIG. 23; for activity of purified sample in the biofilm assay: FIGS. 26-28; for activity in preliminary screens: FIG. 1, compounds in red
Description: A straightforward biological assay was developed to provide for the study these important bacterial biofilm communities. This assay also provided an efficient means for screening for compounds that have an effect on bacterial growth and/or biofilm formation.
The racemic amino acid derivatives 1 (synthesized in row A of each Bill-Board) are then screened for biological activity (antibacterial activity in a Kirby-Bauer disc plate assay) and/or K357 laboratory (assay for biofilm formation by Pseudomonas aeruginosa).
Referring now to FIG. 3, reproducible P. aeruginosa Biofilm Assays were carried out using newly synthesized twenty-one “unnatural” amino acids. See George A. O'Toole, Microtiter Dish Biofilm Formation Assay, J. VIS EXP. 2011; (47): 2437, disclosures of which are incorporated by reference in its entirety to the extent that they are not inconsistent with the explicit teachings of this specification.
Referring to FIGS. 34-35, all newly synthesized compounds prepared according to the schemes described above were assayed for biofilm formation in multiplicate 24 well plates at a screening dose of 20 μg/mL using crystal violet optical density (OD) readings as the readout. Results were expressed as % biofilm formation relative to a control (control=bacteria alone=100% biofilm formation). The procedure for the biofilm assay was the same as that used by students in the K357 biofilm laboratory.
Referring now to FIGS. 36-38, all compounds assayed in either 96 well or 24 well plates at a screening dose of either 20 or 40 μg/mL, using a biofilm assay with crystal violet optical density (OD) readings as the readout. Results were expressed as % biofilm formation (control=bacteria alone=100% biofilm formation). The procedure for the biofilm assay was the same as that used by students in the K357 biofilm laboratory.

[1] = water-solubility noted during extractive work-up; assay type: physicochemical; conditions: basic aqueous phase, extraction with dichloromethane

SMILES | activity in the Biofilm Assay (Pseudomonas aeruginosa) | potency in modulating/inhibiting biofilm formation (SAR studies) (Pseudomonas aeruginosa) | activity of purified sample in the biofilm assay (Pseudomonas aeruginosa) | activity in preliminary screens (Pseudomonas aeruginosa) | activity of un-purified samples in the K357 biofilm assay (Pseudomonas aeruginosa) | potency in the biofilm assay compared with tobramycin (Pseudomonas aeruginosa; FIG. 24, comparator tobramycin) | water-solubility [1]
NC(Cc1ccc(F)c(F)c1)C(=O)O (stereo not shown) [3,4-F2, 2-Amino-3-(3,4-difluorophenyl)propanoic acid] | showed activity | potent activity | active in a dose dependent manner | – | – | – | –
NC(=O)C(N)Cc1ccc(F)cc1 (stereo not shown) [4-fluorophenylalanine amide, 2-Amino-3-(4-fluorophenyl)propanamide] | – | very potent inhibitor | – | – | – | – | –
NC(Cc1ccccc1F)C(=O)O (stereo not shown) [Compound 2-F, 2-Amino-3-(2-fluorophenyl)propanoic acid] | showed activity | potent activity | active in a dose dependent manner | showed activity | active | – | –
NC(Cc1cccc(F)c1)C(=O)O (stereo not shown) [Compound 3-F, 2-Amino-3-(3-fluorophenyl)propanoic acid] | showed activity | potent activity | active in a dose dependent manner | showed activity | – | – | –
NC(Cc1ccc(F)cc1)C(=O)O (stereo not shown) [Compound 4-F, 2-Amino-3-(4-fluorophenyl)propanoic acid] | showed activity | potent activity | active in a dose dependent manner; also recorded: confirmed this activity | showed activity | active | as potent as tobramycin | –
N[C@@H](Cc1ccc(I)cc1)C(=O)O [Compound 4-I] | – | – | – | showed activity | – | – | –
NC(Cc1ccc(F)cc1)C(=O)NCCN1CCOCC1 (stereo not shown) [Compound 5n, 2-Amino-3-(4-fluorophenyl)-N-(2-morpholinoethyl)propanamide] | – | – | – | – | – | – | Appreciable water-solubility
NC(Cc1ccc(F)cc1)C(=O)N1CCCC1 (stereo not shown) [Compound 5p, 2-Amino-3-(4-fluorophenyl)-1-(pyrrolidin-1-yl)propan-1-one] | – | – | – | – | – | – | Appreciable water-solubility
